Like-named read-outs stand apart in the source and are kept apart here.
How the values were obtained:
fly maggot eggs = test: meat slice preservative experiment
[1] = tested on: L-glutamate dehydrogenation; test: spontaneous fermentation of flour paste mixed with L-glutamate; assay type: cell-based; conditions: for level of water absorbed on dry test paper: paper inserted 30 minutes, without reducing agent 5 mm
glutamine metabolism = test: spontaneous fermentation of flour paste mixed with glutamine; assay type: cell-based; conditions: about 25 °C, one hour, without reducing agent 8 to 9
tumors = test: administration of reducing agents in cycles to tumor patients; assay type: in vivo, human; conditions: advanced lung cancer, 15-month course with bevacizumab, before reducing agents
[2] = tested on: anaerobic bacteria or facultative anaerobic bacteria; assay type: cell-based
bacteria = test: preservative effect on lettuce leaf, loofah juice and celery leaf in water
[3] = cited from earlier work
fermenting microorganism = test: flour fermentation experiment; assay type: cell-based; conditions: second day of fermentation; without sodium selenite pH 4-5
Protocol: Two portions of flour (50 g each) were used for fermentation experiments. Each portion was mixed with an equal amount (about 50 g) of water, and to one of the mixtures sodium selenite having about 200 μg selenium was added. […] The same phenomenon was observed over 20 days of continuous monitoring (the contrast between flour fragrance and the acidic odor). As measured by pH test paper, the flour with sodium selenite on the second day of fermentation was slightly alkaline with a pH of 7-8, while the flour without sodium selenite was acidified after fermentation with a pH of 4-5. […] Since tumor cells and anaerobia cells have the same steps and processes of chemical reactions in glycolysis, it is believed that tumor cells would either stop metabolism and die, or change the metabolic pattern and turn into normal cells.

[4] = trials on patients with gout, urine pH; assay type: in vivo, human
anaerobia = test: spontaneous anaerobic fermentation of flour paste sealed with rapeseed oil; assay type: cell-based; conditions: about 7 months spontaneous fermentation, air blocked with rapeseed oil; amounts added as
[5] = spraying on brown spots on the face; assay type: in vivo, human; conditions: 5 ppm sodium selenite solution and randomly 3% aqueous sodium formate solution
[6] = trials on patients with gastric ulcer or gastrointestinal inflammation; assay type: in vivo, human; conditions: about 30 of about 80 tumor patients having gastrointestinal inflammation
[7] = evening of same day, bare meat densely covered
[8] = next morning, maggots appeared on untreated slice
[9] = after 3 days, sodium formate 1 g 3 times per day, sodium oxalate 1 g per day

| Compound | fly maggot eggs on the meat slice (fly maggot eggs) | level of water absorbed on dry test paper [1] | pH value of the gas in the beaker (wet pH paper) (glutamine metabolism) | fly maggot eggs on the meat slice (fly maggot eggs; [7]) | maggots on the meat slice (fly maggot eggs; [8]) | further results |
| --- | --- | --- | --- | --- | --- | --- |
| O=CO [formic acid] | about 5 |  |  |  |  | maggots on the meat slice (fly maggot eggs): no maggot was hatched |
| selenium dioxide |  | about 9 mm | about 7.5 | about 5 | no maggot was hatched |  |
| sodium sulfide | about 5 |  |  |  |  | maggots on the meat slice (fly maggot eggs): no maggot was hatched |
| bevacizumab |  |  |  |  |  | CY211 index during course (tumors): up to 28 |
| calcium formate |  | about 9 mm | about 7.5 | about 5 | no maggot was hatched | effect on pH of water in the glutinous rice [2]: same effect |
| O=[Se](O)O [sodium selenite] | 5 | 9 mm | about 7.5 |  |  | diameter of brown rot spot on lettuce leaf (bacteria; fifth day, 180 μg selenium in 80 g tap water, 15 to 20 °C, without: about 6 mm): about 1 mm; diameter of spot on loofah juice (bacteria; fifth day, with sodium selenite): about 3 mm; day a spot first appeared on the surface of loofah juice (bacteria; loofah juice with sodium selenite, without: about 3 mm spot on second day): 3 days; toxic dose ([3]; human, oral administration, publicly reported): 400 mg per day; pH value of the gas in the beaker (wet pH paper) ([1]; one hour, without sodium selenite 8): about 7.5; pH of flour by pH test paper (fermenting microorganism): 7-8 |
| O=C([O-])C(=O)[O-].[Na+].[Na+] [sodium oxalate] | about 5 | about 9 mm | about 7.5 |  |  | pain feeling of gout [4, 9]: disappeared; morning urine pH by test paper ([4]; gout patients, after 3 days, sodium formate 1 g 3 times per day, sodium oxalate 1 g per day, 5.5 to 6 during onset): 7; pH of urine tested first in the morning ([4]; patients with frequent gout, 1 g per day): increased pH; maggots on the meat slice (fly maggot eggs): no maggot was hatched |
| N[C@@H](CS)C(=O)O [L-cysteine] |  |  |  |  |  | aqueous solution above the settled flour (anaerobia): clear and transparent |
| O=C(O)C(=O)O [oxalic acid] |  | about 9 mm | about 7.5 | about 5 | no maggot was hatched | aqueous solution above the settled flour (anaerobia): clear and transparent |
| [Se] [selenium] |  |  |  |  |  | safe dose ([3]; oral intake): no more than 400 mg per day |
| O=C[O-].[Na+] [sodium formate] |  | about 9 mm | about 7.5 | about 5 | no maggot was hatched | colored spots in more than 10 people [5]: faded or disappeared colored spots; pain feeling of gout [4, 9]: alleviated and even disappeared; urine pH, hospital urine test ([4]; patient with a tumor, 1 g per day for two weeks): 8; gastrointestinal discomfort [6]: alleviated gastrointestinal discomfort; pH of water in the glutinous rice [2]: slightly decreased from about 7; pH value of water in the glutinous rice [2]: about 6 |

Reference: US20200121716A1, “Method for Inhibiting Both Glycolysis and Glutamine Metabolism in Cells and Use Thereof” (priority 2017, published 2020)
